Data taken from patent publication US20030225152A1, “3-(Arylamino)methylene-1, 3-dihydro-2h-indol-2-ones as kinase inhibitors” (priority 2001, published 2003).

test system: VEGF induced increases in intracellular calcium levels in HUVEC (human umbilical vein endothelial cells); experiment: VEGF Stimulated Ca++ Signal in vitro (FLIPR); assay type: cell-based; conditions: 10 μM, VEGF 5 ng/mL
Experimental: VEGF Stimulated Ca^++ Signal in vitro
Automated FLIPR (Fluorometric Imaging Plate Reader) technology was used to screen for inhibitors of VEGF induced increases in intracellular calcium levels in fluorescent dye loaded endothelial cells. HUVEC (human umbilical vein endothelial cells) (Clonetics) were seeded in 96-well fibronectin coated black-walled plates overnight at 37° C./5%CO2. Cells were loaded with calcium indicator Fluo-4 for 45 minutes at 37° C. Cells were washed 4 times (Original Cell Wash, Labsystems) to remove extracellular dye. Test compounds were reconstituted in 100% DMSO and added to the cells to give a final DMSO concentration of 0.1%. For screening, cells were pre-incubated with test agents for 30 minutes, at a single concentration (10 μM) or at concentrations ranging from 0.01 to 10.0 μM followed by VEGF stimulation (5 ng/mL). Changes in fluorescence at 516 nm were measured simultaneously in all 96 wells using a cooled CCD camera. Data were generated by determining max-min fluorescence levels for unstimulated, stimulated, and drug treated samples. IC50 values for test compounds were calculated from % inhibition of VEGF stimulated responses in the absence of inhibitor.

Row | Compound | VEGF Stimulated Ca^++ signal assay % inhibition @ 10 μM [%]
1 | 3-[(Bis-trifluoromethyl-phenylamino)-methylene]-1,3-dihydro-indol-2-one [Example 46] | −4.00
2 | 3-[(Chloro-trifluoromethyl-phenylamino)-methylene]-1,3-dihydro-indol-2-one [Example 45] | 50.00
3 | 3-[(Fluoro-trifluoromethyl-phenylamino)-methylene]-1,3-dihydro-indol-2-one [Example 47] | −2.50
4 | 3-[(Methyl-trifluoromethyl-phenylamino)-methylene]-1,3-dihydro-indol-2-one [Example 56] | 21.00
5 | 4-[(2-Oxo-1,2-dihydro-indol-3-ylidenemethyl)-amino]-phospate [Example 84] | 11.50
6 | 5-Chloro-3-[(phenylamino)-methylene]-1,3-dihydro-indol-2-one benzothiazol-6-yl-amine [Example 101] | 22.00
7 | CCOC(=O)c1ccc(NC=C2C(=O)Nc3ccccc32)cc1 [Example 8, 4-[(2-Oxo-1,3-dihydro-indol-3-ylididenemethyl)-amino]-benzoic acid ethyl ester] | 9
8 | CC(=O)NS(=O)(=O)c1ccc(NC=C2C(=O)Nc3ccccc32)cc1 [Example 39, 2-Oxo-1,2-dihydro-indol-3-ylidenemethyl-sulfaacetamide] | −14.50
9 | O=C1Nc2ccccc2C1=CNc1ccc(Oc2ccccc2)cc1 [Example 41, 3-[(4-Phenoxyamino)-methylene]-1,3-dihydro-indol-2-one] | 16.00
10 | COc1ccc(NC=C2C(=O)Nc3ccccc32)cc1OC [Example 42, 3-[(3,4-Dimethoxyamino)-methylene]-1,3-dihydro-indol-2-one] | 59.50
11 | O=C1Nc2ccc(Cl)cc2C1=CNc1ccc2c(c1)OCO2 [Example 68, 3-[(3,4-Metylenedioxyphenylamino)-methylene]-5-chloro-1,3-dihydro-indol-2-one] | −2.50

same assay, conditions: Homo sapiens, 10 μM, VEGF 5 ng/mL

Row | Compound | inhibition at 10 µM [%]
12 | O=C1Nc2ccccc2C1=CNc1ccccc1 [Example 1, 3-Phenylaminomethylene-1,3-dihydro-indol-2-one] | 92
13 | O=C1Nc2ccccc2C1=CNc1cccc(Br)c1 [Example 2, 3-[(3-Bromo-phenylamino)-methylene]-1,3-dihydro-indol-2-one] | -0.5
14 | O=C1Nc2ccccc2C1CNc1ccc(Br)cc1 (stereo not drawn) [Example 3, 3-[(4-Bromo-phenylamino)-methyl]-1,3-dihydro-indol-2-one] | 3.5
15 | O=C1Nc2ccccc2C1CNc1cccc(Br)c1 (stereo not drawn) [Example 4, 3-[(3-Bromo-phenylamino)-methyl]-1,3-dihydro-indol-2-one] | 16.5
16 | CCc1ccccc1NC=C1C(=O)Nc2ccccc21 [Example 9, 3-[(2-Ethyl-phenylamino)-methylene}-1,3-dihydro-indol-2-one] | 13.5
17 | Cc1ccc(NC=C2C(=O)Nc3ccccc32)cc1F [Example 10, 3-[(3-Fluoro-4-methyl-phenylamino)-methylene]-1,3-dihydro-indol-2-one] | 46
18 | Cc1c(F)cccc1NC=C1C(=O)Nc2ccccc21 [Example 11, 3-[(3-Fluoro-2-methyl-phenylamino)-methylene]-1,3-dihydro-indol-2-one] | -14
19 | O=C1Nc2ccccc2C1=CNc1ccc(O)cc1 [Example 12, 3-[(4-Hydroxy-phenylamino)-methylene]-1,3-dihydro-indol-2-one] | 94.2
20 | O=C1Nc2ccccc2C1=CNc1ccc(O)c(Cl)c1 [Example 13, 3-[(3-Chloro-4-hydroxy-phenylamino)-methylene]-1,3-dihydro-indol-2-one] | -12.5
21 | Cc1cc(F)ccc1NC=C1C(=O)Nc2ccccc21 [Example 14, 3-[(4-Fluoro-2-methyl-phenylamino)-methylene]-1,3-dihydro-indol-2-one] | -14
22 | Cc1ccc(NC=C2C(=O)Nc3ccccc32)cc1 [Example 18, 3-(p-Tolylamino-methylene)-1,3-dihydro-indol-2-one] | 35.5
23 | Cc1cc(C)cc(NC=C2C(=O)Nc3ccccc32)c1 [Example 19, 3-[(3,5-Dimethyl-phenylamino)-methylene]-1,3-dihydro-indol-2-one] | 14
24 | O=C1Nc2ccccc2C1=CNc1cccc(C(F)(F)F)c1 [Example 22, 3-[(3-Trifluoromethyl-phenylamino)-methylene]-1,3-dihydro-indol-2-one] | 22.5
25 | O=C1Nc2ccccc2C1=CNc1ccc2c(c1)CCC2 [Example 23, 3-(Indan-5-ylaminomethylene)-1,3-dihydro-indol-2-one] | 42
26 | O=C1Nc2ccccc2C1=CNc1ccc(Cl)cc1F [Example 24, 3-[(4-Chloro-2-fluoro-phenylamino)-methylene]-1,3-dihydro-indol-2-one] | -13.5
27 | O=C1Nc2ccccc2C1=CNc1ccc(C(F)(F)F)cc1 [Example 25, 3-[(4-Trifluoromethyl-phenylamino)-methylene]-1,3-dihydro-indol-2-one] | -1.5
28 | CCOC(=O)Oc1cc(NC=C2C(=O)Nc3ccccc32)c(F)cc1C [Example 26, Carbonic acid ethyl ester 4-fluoro-2-methyl-5-[(2-oxo-1,2-dihydro-indol-3-ylidenemethyl)-amino]-phenyl ester] | 37.5

Row | Compound | inhibition at 10 µM [%]
29 | Cc1cc(F)c(NC=C2C(=O)Nc3ccccc32)cc1OC(=O)OCC(C)(C)C [Example 27, Carbonic acid 2,2-dimethyl-propyl ester 4-fluoro-2-methyl-5-[(2-oxo-1,2-dihydro-indol-3-ylidenemethyl)-amino]-phenyl ester] | -9
30 | O=C1Nc2ccccc2C1=CNc1cc(O)c(Cl)cc1F [Example 28, 3-[(4-Chloro-2-fluoro-5-hydroxy-phenylamino)-methylene]-1,3-dihydro-indol-2-one] | 32.5
31 | N#CCc1ccc(NC=C2C(=O)Nc3ccccc32)cc1 [Example 30, 3-[(4-Cyanomethylphenylamino)-methylene]-1,3-dihydro-indol-2-one] | 39.5
32 | O=C1Nc2ccccc2C1=CNc1ccc(Cl)cc1 [Example 36, 3-[(4-Chlorophenylamino)-methylene]-1,3-dihydro-indol-2-one] | 30
33 | O=C1Nc2ccccc2C1=CNc1ccc(Cl)c(C(=O)O)c1 [Example 37, 2-Chloro-5-[(2-oxo-1,2-dihydro-indol-3-ylidenemethyl)-amino]-benzoic acid] | -4
34 | O=C1Nc2ccccc2C1=CNc1ccc(OC(F)(F)F)cc1 [Example 51, 3-[(4-Trifluoromethoxy-phenylamino)-methylene]-1,3-dihydro-indol-2-one] | 45.5
35 | Cc1ccc(NC=C2C(=O)Nc3ccccc32)c(F)c1 [Example 53, 3-[(2-Fluoro-4-methyl-phenylamino)-methylene]-1,3-dihydro-indol-2-one] | 2.5
36 | Cc1cc(NC=C2C(=O)Nc3ccccc32)ccc1Cl [Example 54, 3-[(4-Chloro-3-methyl-phenylamino)-methylene]-1,3-dihydro-indol-2-one] | 40.5
37 | COc1ccc(NC=C2C(=O)Nc3ccccc32)cc1C(F)(F)F [Example 55, 3-[(4-Methoxy-3-trifluoromethyl-phenylamino)-methylene]-1,3-dihydro-indol-2-one] | 14.5
38 | COc1cc(NC=C2C(=O)Nc3cccc(C)c32)cc(OC)c1 [Example 61, 3-[(3,5-Dimethoxy-phenylamino)-methylene]-4-methyl-1,3-dihydro-indol-2-one] | -4.5
39 | Cc1ccc(NC=C2C(=O)Nc3cccc(C)c32)cc1 [Example 62, 4-Methyl-3-(p-tolylamino-methylene)-1,3-dihydro-indol-2-one] | 33
40 | Cc1cc(C)cc(NC=C2C(=O)Nc3cccc(C)c32)c1 [Example 63, 3-[(3,5-Dimethyl-phenylamino)-methylene]-4-methyl-1,3-dihydro-indol-2-one] | -14.5
41 | O=C1Nc2ccc(Cl)cc2C1=CNc1ccc(OC(F)F)cc1 [Example 64, 3-[(4-Difluoromethoxyphenylamino)-methylene]-5-chloro-1,3-dihydro-indol-2-one] | 37
42 | O=C1Nc2ccc(Cl)cc2C1=CNc1ccc(OC(F)(F)F)cc1 [Example 66, 3-[(4-Trifluoromethoxyphenylamino)-methylene]-5-chloro-1,3-dihydro-indol-2-one] | 18.5
43 | Cc1cc(NC=C2C(=O)Nc3ccc(Cl)cc32)ccc1O [Example 67, 3-[(3-Methyl-4-hydroxyphenylamino)-methylene]-5-chloro-1,3-dihydro-indol-2-one] | 19
44 | Cc1ccc(NC=C2C(=O)Nc3ccc(Cl)cc32)cc1C [Example 69, 3-[(3,4-Dimethylphenylamino)-methylene]-5-chloro-1,3-dihydro-indol-2-one] | -10.7
45 | CC(C)c1ccc(NC=C2C(=O)Nc3ccc(Cl)cc32)cc1 [Example 70, 3-[(4-i-Propylphenylamino)-methylene]-5-chloro-1,3-dihydro-indol-2-one] | 25

same assay, conditions: Homo sapiens, 0.01 to 10.0 μM, VEGF 5 ng/mL

Row | Compound | IC50 [µM]
46 | O=C1Nc2ccccc2C1=CNc1ccccc1 [Example 1, 3-Phenylaminomethylene-1,3-dihydro-indol-2-one] | 4.05
47 | Cc1ccc(NC=C2C(=O)Nc3ccccc32)cc1F [Example 10, 3-[(3-Fluoro-4-methyl-phenylamino)-methylene]-1,3-dihydro-indol-2-one] | ≥ 10
48 | O=C1Nc2ccccc2C1=CNc1ccc(O)cc1 [Example 12, 3-[(4-Hydroxy-phenylamino)-methylene]-1,3-dihydro-indol-2-one] | 1.07
